Test results reported in patent publication US10695446B2, “Composition and method for detecting hypoxia” (Vanderbilt University, priority 2015, dated 2020).
Where a name gives a salt, the structure may show the parent alone. Each block holds one molecule with its values, some of them ahead of it.

Tests used:
[1] = test system: retinal hypoxia, laser-induced retinal vein occlusion (RVO) mice; test: Imaging of retinal hypoxia in the mouse RVO model; assay type: in vivo; conditions: for pattern of retinal hypoxia image in RVO retina: HYPDX-4-dependent imaging versus pimonidazole-adduct immunostaining, 60 mg/kg i.p.
Method: Laser-induced retinal vein occlusion was performed as previously described.^31 Briefly, C57BL/6 female mice were anesthetized by intraperitoneal injection of ketamine/xylazine and the eyes were dilated using 1% tropicamide. A phosphate buffered solution of 39.31 mM rose bengal (4,5,6,7-tetrachloro-2′,4′,5′,7′-tetraiodo-fluorescein disodium salt, certified purity, 95%; Sigma, St. Louis, Mo.) was sterilized by passage through a 0.22-μm filter, and tail vein injected at a dose of 40 mg/kg. An argon laser photocoagulator (green light) mounted on a slit-lamp (Space Coast Laser Inc. Palm Bay, Fla.) was used to create retinal vein-occlusion (50-μm spot size, 1-second duration, 50 mW). Three laser applications were required to completely stop the blood flow as determined by observing the fundus image with a slit-lamp microscope. In each fundus, only one or two veins was/were photocoagulated to create retinal ischemia. Two hours post-RVO, mice were divided into two groups and received intraperitoneal injection of the HYPDX-4 (60 mg/kg body weight) or pimonidazole hydrochloride (60 mg/kg body weight). Twenty-two hours post-injection of HYPDX-4, in vivo HYPDX-4 dependent fluorescence imaging was performed. The mice were anesthetized with ketamine/xylazine, dilated with 1% tropicamide, and placed on a warm platform; TRITC-Dextran 500 (Sigma, St. Louis, Mo.) was injected systemically at a dose of 20 mg/kg; and fluorescent and bright field fundus images were acquired using the Micron IV retinal-imaging system. Mice were sacrificed, enucleated and the globes were fixed in 10% NBF. HYPDX-4-dependent fluorescence was imaged ex vivo as previously described in the OIR section. For the pimonidazole hydrochloride-injected group, the animals were sacrificed one hour after injection, enucleated and the globes were fixed in 10% NBF. The retinas were processes and ex vivo images were captured as described above for mouse OIR.

[2] = test system: retinal hypoxia, oxygen-induced retinopathy (OIR) mice; test: Imaging of retinal hypoxia in the mouse OIR model; assay type: in vivo
Method: Mouse pups and their dams were placed in 75% oxygen from P7 to P12 according to the OIR oxygen treatment protocol.^27 On P12, litters were removed to room air and after 2 hours, HYPDX-4 (60 mg/kg in PBS) was administered by intraperitoneal injection. Twenty-four hours post-injection, in vivo HYPDX-4-dependent fluorescence imaging was performed. Briefly, mice were anesthetized with ketamine/xylazine, eyes were dilated with 1% tropicamide and placed on a warm platform, and fluorescent and bright field fundus images were acquired using the Micron IV retinal-imaging system (Phoenix Research Laboratories; Pleasanton, Calif.). Then, ex vivo imaging of HYPDX-4 dependent fluorescence was performed. The mice were sacrificed, enucleated, and the globes were fixed in 10% neutral buffered formalin (NBF). Retinas were dissected and stained directly with Alexa Fluor 647-conjugated isolectin B4 then flat-mounted on a microscope slide with Prolong Gold mounting medium (Life Technologies, Grand Island, N.Y.). Images were captured using an epifluorescence ‘Nikon Eclipse Ti-E’ inverted microscope (Melville, N.Y.).
Some mice received intraperitoneal injections of pimonidazole hydrochloride at a concentration of 60 mg/kg body weight two hours after removal to the room air; they were sacrificed and enucleated one hour later. The globes were fixed in 10% NBF for 2 hours; retinas were dissected and washed with tris-buffered saline (TBS), then they were blocked/permeabilized in 10% donkey serum with 1% Triton X-100/0.05% Tween 20 in TBS for 6 hours, and stained with an antibody against pimonidazole-adducts followed by the secondary anti-rabbit IgG conjugated to Alexa Fluor 647- and Alexa Fluor 488-conjugated isolectin B4. The retinas were mounted on microscope slides with Prolong Gold mounting medium. Ex vivo images were captured using an epifluorescence ‘Nikon Eclipse Ti-E’ inverted microscope.

[3] = test system: human Müller cells (MIO-M1); test: Pimonidazole-adduct immunodetection of hypoxia in MIO-M1 cells; assay type: cell-based; conditions: MIO-M1, 100 μM, 4 hours
Method: (§1) ARPE-19 cells were cultured in DMEM/F12 supplemented with 10% Fetal Bovine Serum, 1× GlutaMAX, and 1× Gentamicin/Amphotericin B. MIO-M1 and R28 cells were cultured in low glucose DMEM supplemented with 10% Fetal Bovine Serum, 1× GlutaMAX, and 1× Penicillin-Streptomycin. Cells were maintained in a humidified environment with 5% CO2 at 37° C. unless otherwise noted. The cells were cultured in 96 microwell plates, with HYPDX-4 concentrations ranging from 10 to 100 μM in complete medium, or 100 μM pimonidazole hydrochloride in complete medium. To establish a hypoxic environment, the cells were placed into a humidified hypoxic chamber and flushed with a mixture of 95% N2 and 5% CO2, at a flow rate of 20 L/min for 5 min according to manufacturer instructions. The chamber was clamped and placed at 37° C. for the duration of the treatment. The oxygen level was monitored using the Traceable™ Dissolved Oxygen Meter Pen (Fisher Scientific; Pittsburg, Pa.). To confirm induction of hypoxia, cells were treated with 100 μM pimonidazole hydrochloride diluted in complete medium, subjected to hypoxia or normoxia for 4 hours and immunostained for pimonidazole-adducts according to manufacturer's protocol.

R28 cells [4] = test: In vitro imaging of R28 cells using HYPDX-4; assay type: cell-based, rat
Method: R28 cells were seeded at a density of 45,000 cells per well in 3 wells of 4-well chamber slides. When cells were 90% confluent, 2 wells were treated with HYPDX-4 in complete medium, and one well was treated with pimonidazole hydrochloride diluted in complete medium. The cells were cultured in hypoxia or normoxia for 4 hours. Cells were washed 3 times with HBSS, fixed with 10% neutral buffered formalin (NBF) for 10 minutes at room temperature, washed 3 times with TBS and mounted with Prolong Gold with DAPI mounting media. Pimonidazole-adducts were immunostained according to manufacturer's protocol. HYPDX-4 dependent fluorescence images were taken using an epifluorescence microscope.

MIO-M1 cells [5] = test: In vitro hypoxia-induced HYPDX-4-dependent fluorescence assay, MIO-M1 cells; assay type: cell-based, human; conditions: MIO-M1, 0.1% oxygen, 10 μM to 100 μM
Method: as §1, with “To confirm induction of hypoxia, cells were treated with 100 μM pimonidazole hydrochloride diluted in complete medium, subjected to hypoxia or normoxia for 4 hours and immunostained for pimonidazole-adducts according to manufacturer's protocol.” left out
(§2) ARPE-19, MIO-M1 were seeded at 20,000 and R28 at 15,000 cells per well, respectively, in a 96-well black plate with a clear bottom. […] Fluorescence intensity was measured ([…]: 490 nm, Emission: 520 nm) using a microplate reader (Biotek; Winooski, Vt.).

[6] = Solubility in aqueous solvents, buffers and cell-culture medium; assay type: physicochemical; conditions: neat water or saline, PBS, DMEM with 10% FBS; read-out: soluble at a concentration
R28 cells [7] = test: Cell viability assay (BrdU incorporation), R28 cells; assay type: cell-based, rat; conditions: R28, 0-100 μM, 24 h
Method: (§3) Retinal cell-lines were treated with HYPDX-4 (100 μM) and the viability was measured using the bromodeoxyUridine (BrdU) incorporation assay according to the manufacturers protocol. Briefly, retinal cells were seeded in a 96-well plate for twenty four hours and serum starved for 6 hours. Then, cells were treated with HYPDX-4 and vehicle controls diluted in complete media and allowed to incubate for 24 h. Four hours prior to the end of the incubation, BrdU was added at a concentration of 10 μM and incorporation of BrdU was quantified by ELISA with the BrdU cell viability ELISA kit (Exalpha Biologicals; Shirley, Mass.).

MIO-M1 cells [8] = test: Cell viability assay (BrdU incorporation), MIO-M1 cells; assay type: cell-based, human; conditions: MIO-M1, 0-100 μM, 24 h
Method: as §3

R28 cells [9] = test: In vitro hypoxia-induced HYPDX-4-dependent fluorescence assay, R28 cells; assay type: cell-based, rat
Method: as §1, with “To confirm induction of hypoxia, cells were treated with 100 μM pimonidazole hydrochloride diluted in complete medium, subjected to hypoxia or normoxia for 4 hours and immunostained for pimonidazole-adducts according to manufacturer's protocol.” left out
as §2

retina of RA mice = test: Electroretinography (ERG) measurements; assay type: in vivo, mouse; conditions: 100 mg/kg systemic, dark-adapted mice, 7 days post administration, various flash intensities
Method: ERG measurements were performed according to previously published methods.^32,33 Briefly, ERG analysis was performed on mice injected with HYPDX-4 (100 mg/kg) at one week post-injection. Animals were dark adapted overnight, anesthetized with ketamine/xylazine, dilated with 1% tropicamide, and placed on a warm platform within the Ganzfeld dome of a Diagnosys LLC Espion Electrophysiology system (Lowell, Mass., USA). Mice were exposed to flashes of light ranging from −4 to 2 log cd·s/m^2 and the amplitudes of a-wave and b-wave were measured from baseline to peak. The amplitude of the a-wave and b-wave were plotted as a function of luminance.

[10] = In vitro stability (photostability) in solution, kinetic fluorescence; assay type: physicochemical; conditions: phosphate buffer, 100 nM, 37° C., ex 490 nm / em 520 nm
Method: HYPDX-4 was dissolved in phosphate buffer at a concentration of 100 nM and fluorescence was monitored at excitation maximum 490 nm and emission at 520 nm.

ARPE-19 cells = test: In vitro hypoxia-induced HYPDX-4-dependent fluorescence assay, ARPE-19 cells; assay type: cell-based, human; conditions: ARPE-19, 0.1% oxygen, 10 μM to 100 μM
Method: as §1, with “To confirm induction of hypoxia, cells were treated with 100 μM pimonidazole hydrochloride diluted in complete medium, subjected to hypoxia or normoxia for 4 hours and immunostained for pimonidazole-adducts according to manufacturer's protocol.” left out
as §2

[11] = test system: retinal cross sections from RA mice; test: TUNEL assay in retinal cross sections; assay type: in vivo, mouse; conditions: retinal cross sections from treated mice, DNase I positive control
Method: TUNEL assays were performed using Click-iT in situ apoptosis detection kit (Life Technology, USA). The mouse eyes were enucleated and fixed by immersing in 10% NBF for 25 minutes at 4° C. Then, they were fresh frozen in 30% sucrose and embedded in TissueTec OCT for cryosectioning (7 μm sections). The retinal cross-sections were then stained for fragmented DNA by incorporating alkyne-modified EdUTP nucleotide followed by detection with Alexafluor 647 azide in apoptotic cells. Retinal cross-sections were treated with DNase I as the positive control.

Method for physchem: A mixture of Octanol (500 uL) and water (500 uL) was added to HYPDX-4 (173 μg), or Pimonidazole Free base (742 μg) or Pimonidazole HCl (1 mL, 50 mg/mL) in an eppendorf tube and gently mixed in a rotator for 2 days. The aqueous and octanol layers were separated and the Optical Density (OD) was measured in microplate spectrophotometer instrument. The amount of HYPDX-4, Pimonidazole Free base and Pimonidazole HCl was calculated from the standard curve.

logP at 2 days (physchem): -2.06
SMILES: O=[N+]([O-])c1nccn1CC(O)CN1CCCCC1 (stereo not drawn) [Pimonidazole HCl, reference compound]
pattern of retinal hypoxia image in RVO retina [1]: patchy
pimonidazole immunostaining of retinal hypoxia in OIR pups ([2]; 60 mg/kg i.p., ex vivo, sacrificed one hour later): confirmed
pimonidazole-adduct fluorescence, hypoxic cells ([3]; hypoxia): Significant fluorescence enhancement
pimonidazole-adduct fluorescence, normoxic cells ([3]; normoxia): minimal fluorescence signal

solubility [6]: ≥ 100 µM
logP at 2 days (physchem): -2.58
photostability in solution, duration [10]: at least 24 hours
SMILES: CCN1/C(=C/C=C/C=C/C2=[N+](CCCCS(=O)(=O)[O-])c3ccc4ccccc4c3C2(C)C)C(C)(C)c2cc(CC(=O)NCC3CCN(CC(O)Cn4ccnc4[N+](=O)[O-])CC3)ccc21 (stereo not drawn) [HYPDX-4]
HYPDX-4-dependent fluorescence in RVO retina ([1]; 60 mg/kg i.p. two hours after occlusion, imaging 22 hours post-injection): detected downstream and laterally from the occlusion
pattern of retinal hypoxia image in RVO retina [1]: more confluent image of retinal hypoxia
cellular fluorescence imaging, hypoxic cells (R28 cells [4]; R28, 100 μM, 0.1% oxygen, 4 hours): Hypoxia-specific, HYPDX-4-dependent fluorescence activity
cellular fluorescence imaging, normoxic cells (R28 cells [4]; R28, normoxia): Minimal
HYPDX-4 dependent fluorescence, dose dependence (MIO-M1 cells [5]): optimal signal to noise ratios at the 100 μM dose
cell viability (BrdU incorporation) (R28 cells [7]): did not affect cell viability
cell viability (BrdU incorporation) (MIO-M1 cells [8]): did not affect cell viability
HYPDX-4-dependent fluorescence versus oxygen concentration (R28 cells [9]; 100 μM, oxygen 0.1% to 20.9%, 4 hours): maximal at 0.1% oxygen
HYPDX-4 dependent fluorescence, dose dependence (R28 cells [9]; R28, 0.1% oxygen, 10 μM to 100 μM): optimal signal to noise ratios at the 100 μM dose
HYPDX-4-dependent fluorescence in OIR retina ([2]; OIR pups, 60 mg/kg i.p. on P12, imaging 24 hours post-injection, central avascular retina): detected in vivo as well as ex vivo
HYPDX-4 dependent fluorescence in room air control retina ([2]; age matched RA (P13) control pups, same treatment): undetectable
retinal layers showing HYPDX-4-dependent fluorescence (hypoxia), cross sections ([2]; ex vivo retinal transverse sections from OIR pups): inner plexiform and inner nuclear layers
ERG mean a-wave amplitudes versus vehicle (PBS) and sodium fluorescein (retina of RA mice): no significant changes in mean a-wave amplitudes
ERG mean b-wave amplitudes versus vehicle (PBS) and sodium fluorescein (retina of RA mice): no significant changes in mean b-wave amplitudes
HYPDX-4 dependent fluorescence, dose dependence (ARPE-19 cells): optimal signal to noise ratios at the 100 μM dose
retinal cell apoptosis (TUNEL) [11]: No apoptosis was observed
